Assay results reported in patent EP4772506A1, “COMPOUND FOR REGULATING ACTIVITY OF MICRORNA-124” (Jiangsu Chia Tai Fenghai Pharmaceutical Co., Ltd., priority 2023, dated 2025).
Marks after values point to notes of the source that are not given here. Each block holds one compound with its values, some of them ahead of it.

Columns and labels:
[1] = test system: miR124; assay: Effect of the compound on miR124 upregulation in PBMCs (qPCR, U6 as internal reference); assay type: cell-based, human; details: miR-124 expression, 5 µM, 6 days, batches normalized
Description: The effect of test compounds on miR124 expression levels was evaluated in human peripheral blood mononuclear cells (PBMCs). […] Test compounds (final concentration: 5 µM) were added for treatment at 37°C, 5% CO2 for 6 days, with medium replacement on day 3. The control group was treated with an equal volume of DMSO under the same conditions.
RNA Extraction: On day 6, cells were collected in a 15 mL centrifuge tube and centrifuged at 400g for 10 min, followed by supernatant removal. […] The upper RNA layer was aspirated into a clean 1.5 mL centrifuge tube (RNase-free), an equal volume of isopropanol was added, and left at room temperature for 10 min to precipitate RNA. Centrifugation at 4°C and 12000g for 10 min yielded a small white pellet at the tube bottom.
Fluorescent quantitative PCR reaction: miRNA quantification was performed using SYBR Green I intercalating fluorescence method, with simultaneous detection of the housekeeping gene U6 transcript level as internal reference.

[2] = test system: dextran sulfate sodium (DSS)-induced ulcerative colitis; assay: Preventive and therapeutic effects on DSS-induced ulcerative colitis (UC) in mice; assay type: in vivo, C57BL/6 mice; details: for relative body weight (% of initial): mean ± SEM; for Relative colon length (%): of the control group
Description: The preventive and therapeutic effects of the positive drug ABX464 and Compound 23 of the present disclosure on dextran sulfate sodium (DSS)-induced ulcerative colitis were evaluated using a DSS-induced ulcerative colitis (UC) model.
Female C57BL/6 mice (20-22 g) were randomly divided into 7 groups according to body weight after adaptive feeding, as shown in Table 4. On day 1, the mice were switched to 3% DSS feeding. After 10 days of DSS feeding, they were switched back to normal drinking water until day 13. From day 1 to day 13, the mice were continuously administered the corresponding solvents and drugs by gavage. Body weight changes were recorded daily from day 1 to day 13. On day 13, after recording body weight, the mice were dissected to measure colon length. The preventive and therapeutic effects of the test drug on ulcerative colitis in mice were evaluated based on relative body weight change rate and colon length. Table 4. Experimental animal grouping and model induction period

[3] = Pharmacokinetic study in rats (plasma, LC-MS/MS); details: rat, po, 20 mg/kg
Description: • (1) SD male rats were used as test animals.
The administration solvent was a physiological saline solution containing 10% DMSO + 10% polyoxyl castor oil (Cremophor EL). Fasting was maintained for approximately 12 hours prior to administration, and free feeding was allowed 4 hours post-administration, with no water restriction. […] After gently inverting the tube to fully mix the anticoagulant EDTA-K2 with the blood, the tube was immediately placed on wet ice. The plasma was separated by centrifugation immediately after blood collection under the following centrifugation conditions: 4°C, 3500 rpm, and 5 min. The upper plasma layer was transferred and stored at -80°C until sample analysis. […] The pharmacokinetic parameters were calculated from the sample analysis results using WinNonlin software.

[4] = by day 10, 50 mg/kg qd by gavage
[5] = day 13, 50 mg/kg qd by gavage, 50 mg/kg
[6] = male, Sprague-Dawley (SD), plasma
[7] = 6.25-50 mg/kg qd by gavage, overall conclusion
[8] = day 13, 6.25 mg/kg qd by gavage
[9] = day 13, 12.5 mg/kg qd by gavage

AUC(0-t) [3, 6]: 2310 ng·h/mL
Cmax [3, 6]: 727 ng/mL
MRT inf [3, 6]: 2.73 h
Tmax [3, 6]: 2 h
half-life [3, 6]: 0.86 h
Structure (SMILES): FC(F)(F)Oc1ccc(Nc2ccc3cccc(Cl)c3n2)cc1 [ABX464, reference compound]
Average fold change compared to DMSO treatment, Average value [1]: 6.91
weight loss [2, 4]: 6.02%
relative body weight (% of initial) ([2]; day 1, 50 mg/kg qd by gavage): 100±0.00%
relative body weight (% of initial) ([2]; day 2, 50 mg/kg qd by gavage): 101.6± 0.45%
relative body weight (% of initial) ([2]; day 3, 50 mg/kg qd by gavage): 101.9± 0.47%
relative body weight (% of initial) ([2]; day 4, 50 mg/kg qd by gavage): 101.9± 0.62%
relative body weight (% of initial) ([2]; day 5, 50 mg/kg qd by gavage): 101.1± 0.82%
relative body weight (% of initial) ([2]; day 6, 50 mg/kg qd by gavage): 98.5±0.79%
relative body weight (% of initial) ([2]; day 7, 50 mg/kg qd by gavage): 95.6±1.09%
relative body weight (% of initial) ([2]; day 8, 50 mg/kg qd by gavage): 93.5± 1.35%
relative body weight (% of initial) ([2]; day 9, 50 mg/kg qd by gavage): 93.0±1.33%
relative body weight (% of initial) ([2]; day 10, 50 mg/kg qd by gavage): 94.0± 1.27 %
relative body weight (% of initial) ([2]; day 11, 50 mg/kg qd by gavage): 92.4± 2.22 %
relative body weight (% of initial) ([2]; day 12, 50 mg/kg qd by gavage): 92.7±2.19%
Colon length Mean ([2]; day 13, 50 mg/kg qd by gavage): 7.72 cm
relative body weight (% of initial) ([2]; day 13, 50 mg/kg qd by gavage): 92.0±2.52%
Relative colon length (%) [2, 5]: 96.5%

Structure (SMILES): FC(F)(F)Oc1ccc(Nc2ncc3ccc(Cl)cc3n2)cc1 [Compound 23]
Average fold change compared to DMSO treatment, Average value [1]: 6.54
effect on colon shortening in DSS-induced ulcerative colitis mice [2, 7]: good therapeutic effect on colon shortening
effect on weight loss in DSS-induced ulcerative colitis mice [2, 7]: favorable restorative effect on weight loss
weight loss ([2]; by day 9, 50 mg/kg qd by gavage): 3.09%
weight loss ([2]; by day 10, 6.25 mg/kg qd by gavage): 7.52%
weight loss ([2]; by day 10, 12.5 mg/kg qd by gavage): 8.99%
weight loss ([2]; by day 10, 25 mg/kg qd by gavage): 7.96%
weight loss [2, 4]: 3.8%
relative body weight (% of initial) ([2]; day 1, 6.25 mg/kg qd by gavage): 100±0.00%
relative body weight (% of initial) ([2]; day 1, 12.5 mg/kg qd by gavage): 100±0.00%
relative body weight (% of initial) ([2]; day 1, 25 mg/kg qd by gavage): 100±0.00%
relative body weight (% of initial) ([2]; day 1, 50 mg/kg qd by gavage): 100±0.00%
relative body weight (% of initial) ([2]; day 2, 6.25 mg/kg qd by gavage): 101.5± 0.43%
relative body weight (% of initial) ([2]; day 2, 12.5 mg/kg qd by gavage): 99.9±0.63%
relative body weight (% of initial) ([2]; day 2, 25 mg/kg qd by gavage): 100.5± 0.37%
relative body weight (% of initial) ([2]; day 2, 50 mg/kg qd by gavage): 99.1±0.65%
relative body weight (% of initial) ([2]; day 3, 6.25 mg/kg qd by gavage): 102.4± 0.78%
relative body weight (% of initial) ([2]; day 3, 12.5 mg/kg qd by gavage): 100.8± 0.67%
relative body weight (% of initial) ([2]; day 3, 25 mg/kg qd by gavage): 101.1± 0.59%
relative body weight (% of initial) ([2]; day 3, 50 mg/kg qd by gavage): 100.2±0.78%
relative body weight (% of initial) ([2]; day 4, 6.25 mg/kg qd by gavage): 101.9± 1.02%
relative body weight (% of initial) ([2]; day 4, 12.5 mg/kg qd by gavage): 99.9 ± 0.87%
relative body weight (% of initial) ([2]; day 4, 25 mg/kg qd by gavage): 100.8± 0.44%
relative body weight (% of initial) ([2]; day 4, 50 mg/kg qd by gavage): 100.0±0.74%
relative body weight (% of initial) ([2]; day 5, 6.25 mg/kg qd by gavage): 101.7± 0.98%
relative body weight (% of initial) ([2]; day 5, 12.5 mg/kg qd by gavage): 100.5± 0.88%
relative body weight (% of initial) ([2]; day 5, 25 mg/kg qd by gavage): 99.8±0.61%
relative body weight (% of initial) ([2]; day 5, 50 mg/kg qd by gavage): 100.7±1.01%
relative body weight (% of initial) ([2]; day 6, 6.25 mg/kg qd by gavage): 100±0.97%
relative body weight (% of initial) ([2]; day 6, 12.5 mg/kg qd by gavage): 97.4±0.87%
relative body weight (% of initial) ([2]; day 6, 25 mg/kg qd by gavage): 97.5±0.81%
relative body weight (% of initial) ([2]; day 6, 50 mg/kg qd by gavage): 98.0±1.15%
relative body weight (% of initial) ([2]; day 7, 6.25 mg/kg qd by gavage): 96.4±1.18%
relative body weight (% of initial) ([2]; day 7, 12.5 mg/kg qd by gavage): 95.0±1.12%
relative body weight (% of initial) ([2]; day 7, 25 mg/kg qd by gavage): 95.3±0.98%
relative body weight (% of initial) ([2]; day 7, 50 mg/kg qd by gavage): 96.9±1.03%
relative body weight (% of initial) ([2]; day 8, 6.25 mg/kg qd by gavage): 94.4±1.50%
relative body weight (% of initial) ([2]; day 8, 12.5 mg/kg qd by gavage): 92.7±1.28%
relative body weight (% of initial) ([2]; day 8, 25 mg/kg qd by gavage): 93.7±1.43%
relative body weight (% of initial) ([2]; day 8, 50 mg/kg qd by gavage): 96.7±1.20%
relative body weight (% of initial) ([2]; day 9, 6.25 mg/kg qd by gavage): 93.4±1.75%
relative body weight (% of initial) ([2]; day 9, 12.5 mg/kg qd by gavage): 92.7±1.55%
relative body weight (% of initial) ([2]; day 9, 25 mg/kg qd by gavage): 92.6±2.25%
relative body weight (% of initial) ([2]; day 9, 50 mg/kg qd by gavage): 96.9± 1.41 %
relative body weight (% of initial) ([2]; day 10, 6.25 mg/kg qd by gavage): 92.5± 2.02 %
relative body weight (% of initial) ([2]; day 10, 12.5 mg/kg qd by gavage): 91.0± 1.78 %
relative body weight (% of initial) ([2]; day 10, 25 mg/kg qd by gavage): 92.0± 2.38 %
relative body weight (% of initial) ([2]; day 10, 50 mg/kg qd by gavage): 96.2± 1.38 %
relative body weight (% of initial) ([2]; day 11, 6.25 mg/kg qd by gavage): 92.4±2.22%
relative body weight (% of initial) ([2]; day 11, 12.5 mg/kg qd by gavage): 91.9±1.91%
relative body weight (% of initial) ([2]; day 11, 25 mg/kg qd by gavage): 94.6± 1.73 %
relative body weight (% of initial) ([2]; day 11, 50 mg/kg qd by gavage): 96.6± 1.45 %
relative body weight (% of initial) ([2]; day 12, 6.25 mg/kg qd by gavage): 92.7±2.19%
relative body weight (% of initial) ([2]; day 12, 12.5 mg/kg qd by gavage): 92.1±1.17%
relative body weight (% of initial) ([2]; day 12, 25 mg/kg qd by gavage): 93.5±1.57%
relative body weight (% of initial) ([2]; day 12, 50 mg/kg qd by gavage): 96.5± 1.62 %
Colon length Mean [2, 8]: 7.18 cm
relative body weight (% of initial) [2, 8]: 92.0±2.52%
Colon length Mean [2, 9]: 7.85 cm
relative body weight (% of initial) [2, 9]: 92.1±1.17%
Colon length Mean ([2]; day 13, 25 mg/kg qd by gavage): 7.28 cm
relative body weight (% of initial) ([2]; day 13, 25 mg/kg qd by gavage): 95.3±1.63%
Colon length Mean ([2]; day 13, 50 mg/kg qd by gavage): 8.27 cm
relative body weight (% of initial) ([2]; day 13, 50 mg/kg qd by gavage): 96.5± 1.62 %
Relative colon length (%) ([2]; day 13, 6.25 mg/kg qd by gavage, 6.25 mg/kg): 89.8### %
Relative colon length (%) ([2]; day 13, 6.25 mg/kg qd by gavage, listed as compound 23, 6.25 mg/kg): 89.79%
Relative colon length (%) ([2]; day 13, 12.5 mg/kg qd by gavage, 12.5 mg/kg): 98.1#### %
Relative colon length (%) ([2]; day 13, 12.5 mg/kg qd by gavage, listed as compound 23, 12.5 mg/kg): 98.1%
Relative colon length (%) ([2]; day 13, 25 mg/kg qd by gavage, 25 mg/kg): 90.9#### %
Relative colon length (%) ([2]; day 13, 25 mg/kg qd by gavage, listed as compound 23, 25 mg/kg): 90.9%
Relative colon length (%) [2, 5]: 103.4#### %
Relative colon length (%) ([2]; day 13, 50 mg/kg qd by gavage, listed as compound 23, 50 mg/kg): 103.3%
AUC(0-t) ([3]; in vivo): 5060 ng·h/mL
Cmax ([3]; in vivo): 1850 ng/mL
MRT inf ([3]; in vivo): 2.2 h
Tmax ([3]; in vivo): 2 h
half-life ([3]; in vivo): 2.65 h
